For the assay, the target named is T1, Recombinant human HSD17B13 enzyme (Homo sapiens, UniProt Q7Z5P4).
T1 sequence (Q7Z5P4 20-300): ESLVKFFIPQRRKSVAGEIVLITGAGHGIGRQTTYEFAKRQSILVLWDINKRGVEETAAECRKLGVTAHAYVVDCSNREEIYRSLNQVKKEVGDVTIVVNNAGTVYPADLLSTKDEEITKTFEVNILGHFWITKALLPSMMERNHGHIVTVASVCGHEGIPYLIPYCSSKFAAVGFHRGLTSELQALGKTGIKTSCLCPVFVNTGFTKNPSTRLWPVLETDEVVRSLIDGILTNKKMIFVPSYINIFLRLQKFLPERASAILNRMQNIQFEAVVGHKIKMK
Nature of the assay: HSD17b13 NAD(P)H-Glo biochemical assay. As to conditions: for IC50: 50 uM estradiol, 1 mM NAD+, NAD(P)H-Glo luminescence, read-out: HSD17β13 IC50. The procedure, abridged:
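Recombinant human HSD17B13 in 20 mM Tris pH7.4 with 0.002% Tween-20 and 0.02% BSA was preincubated with inhibitor for 20 minutes at RT. The reaction ran 3 hours at 37° C with 50 uM estradiol and 1 mM NAD+ (final). NADH formed was detected by NAD(P)H-Glo luminescence after 1 hour at RT.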

This passage reports IC50 and inhibition results from patent publication US20240083853A1, “HSD17B13 INHIBITORS AND USES THEREOF” (FL2022-001, Inc., priority 2020, published 2024).

Bounds are passed on as bounds.

Usually IC50 stands for the point on the concentration scale where inhibition reaches its midpoint. For `CCS(=O)(=O)N1CCN(c2ccc(-n3ncc4cc(F)c(O)c(F)c43)cc2)CC1` [Compound 23.8, 1-(4-(4-(Ethylsulfonyl)piperazin-1-yl)phenyl)-5,7-difluoro-1H-indazol-6-ol], the IC50 lay in the range of 100 to 1000 nM.

Consider `CC(C)S(=O)(=O)N1CCN(c2ccc(-n3ncc4cc(F)c(O)c(F)c43)cc2)CC1` [Compound 23.9, 5,7-Difluoro-1-(4-(4-(isopropylsulfonyl)piperazin-1-yl)phenyl)-1H-indazol-6-ol], for which the half-inhibitory concentration (IC50) lay in the range of 100 to 1000 nM.

On to `Oc1c(F)cc2cnn(-c3ccc(N4CCCC4)cc3)c2c1F` [Compound 23.10, 5,7-Difluoro-1-(4-(pyrrolidin-1-yl)phenyl)-1H-indazol-6-ol], for which the IC50 is less than 100 nM.

Take `CC1(C)CCN(c2ccc(-n3ncc4cc(F)c(O)c(F)c43)cc2)C1` [Compound 23.11, 1-(4-(3,3-Dimethylpyrrolidin-1-yl)phenyl)-5,7-difluoro-1H-indazol-6-ol]: the concentration for half-maximal inhibition (IC50) was less than 100 nM.

With `Oc1c(F)cc2cnn(-c3ccc(N4CCC4)cc3)c2c1F` [Compound 23.12, 1-(4-(Azetidin-1-yl)phenyl)-5,7-difluoro-1H-indazol-6-ol], the half-maximal inhibitory concentration (IC50) lay within 100 to 1000 nM.

Turning to `CC1(C)CN(c2ccc(-n3ncc4cc(F)c(O)c(F)c43)cc2)C1` [Compound 23.13, 1-(4-(3,3-Dimethylazetidin-1-yl)phenyl)-5,7-difluoro-1H-indazol-6-ol], the IC50 was less than 100 nM.

For the molecule `CS(=O)(=O)N1CCCN(c2ccc(-n3ncc4cc(F)c(O)c(F)c43)cc2)CC1` [Compound 23.14, 5,7-Difluoro-1-(4-(4-(methylsulfonyl)-1,4-diazepan-1-yl)phenyl)-1H-indazol-6-ol], the IC50 lay within 100 to 1000 nM.

Turning to `CS(=O)(=O)N1C2CC1CN(c1ccc(-n3ncc4cc(F)c(O)c(F)c43)cc1)C2` [Compound 23.15, 5,7-Difluoro-1-(4-(6-(methylsulfonyl)-3,6-diazabicyclo[3.1.1]heptan-3-yl)phenyl)-1H-indazol-6-ol], the concentration for half-maximal inhibition (IC50) was 100 to 1000 nM.

In the case of `Oc1c(F)cc2cnn(-c3ccc(N4CC5CC(C4)O5)cc3)c2c1F` [Compound 23.16, 1-(4-(6-Oxa-3-azabicyclo[3.1.1]heptan-3-yl)phenyl)-5,7-difluoro-1H-indazol-6-ol], the IC50 was in the range of 100 to 1000 nM.

`CS(=O)(=O)NC1CCN(c2ccc(-n3ncc4cc(F)c(O)c(F)c43)cc2)CC1` [Compound 23.17, N-(1-(4-(5,7-Difluoro-6-hydroxy-1H-indazol-1-yl)phenyl)piperidin-4-yl)methanesulfonamide]: the half-inhibitory concentration (IC50) lay within 100 to 1000 nM.

As to `CC1CCN(c2ccc(-n3ncc4cc(F)c(O)c(F)c43)cc2)CC1` [Compound 23.18, 5,7-Difluoro-1-(4-(4-methylpiperidin-1-yl)phenyl)-1H-indazol-6-ol], the IC50 is less than 100 nM.

Take `CC1(C)CCCN(c2ccc(-n3ncc4cc(F)c(O)c(F)c43)cc2)C1` [Compound 23.19, 1-(4-(3,3-Dimethylpiperidin-1-yl)phenyl)-5,7-difluoro-1H-indazol-6-ol]: the half-maximal inhibitory concentration (IC50) is less than 100 nM.

Turning to `Oc1c(F)cc2cnn(-c3ccc(N4CCC(F)(F)CC4)cc3)c2c1F` [Compound 23.20, 1-(4-(4,4-Difluoropiperidin-1-yl)phenyl)-5,7-difluoro-1H-indazol-6-ol], the IC50 was less than 100 nM.

Take `CC1(C#N)CCN(c2ccc(-n3ncc4cc(F)c(O)c(F)c43)cc2)CC1` [Compound 23.21, 1-(4-(5,7-Difluoro-6-hydroxy-1H-indazol-1-yl)phenyl)-4-methylpiperidine-4-carbonitrile]: the IC50 was less than 100 nM.

In the case of `CC1(O)CCN(c2ccc(-n3ncc4cc(F)c(O)c(F)c43)cc2)CC1` [Compound 23.22, 5,7-Difluoro-1-(4-(4-hydroxy-4-methylpiperidin-1-yl)phenyl)-1H-indazol-6-ol], the concentration for half-maximal inhibition (IC50) is 100 to 1000 nM.

As for `Oc1c(F)cc2cnn(-c3ccc(N4CCC5(CC4)CC5)cc3)c2c1F` [Compound 23.23, 1-(4-(6-Azaspiro[2.5]octan-6-yl)phenyl)-5,7-difluoro-1H-indazol-6-ol], the IC50 was less than 100 nM.

Turning to `Oc1c(F)cc2cnn(-c3ccc(N4CCC5(CCC5)CC4)cc3)c2c1F` [Compound 23.24, 1-(4-(7-Azaspiro[3.5]nonan-7-yl)phenyl)-5,7-difluoro-1H-indazol-6-ol], the IC50 is less than 100 nM.

Turning to `Oc1c(F)cc2cnn(-c3ccc(N4CCC5(CC4)COC5)cc3)c2c1F` [Compound 23.25, 1-(4-(2-Oxa-7-azaspiro[3.5]nonan-7-yl)phenyl)-5,7-difluoro-1H-indazol-6-ol], the IC50 is less than 100 nM.

As for `Oc1c(F)cc2cnn(-c3ccc(N4CC5(CCOCC5)C4)cc3)c2c1F` [Compound 23.26, 1-(4-(7-Oxa-2-azaspiro[3.5]nonan-2-yl)phenyl)-5,7-difluoro-1H-indazol-6-ol], the IC50 is less than 100 nM.

On to `CC1(C#N)CN(c2ccc(-n3ncc4cc(F)c(O)c(F)c43)cc2)C1` [Compound 23.27, 1-(4-(5,7-Difluoro-6-hydroxy-1H-indazol-1-yl)phenyl)-3-methylazetidine-3-carbonitrile], for which the half-inhibitory concentration (IC50) is less than 100 nM.

In the case of `Oc1c(F)cc2cnn(-c3ccc(N4CCC5(CC4)CNC5)cc3)c2c1F` [Compound 23.28, 1-(4-(2,7-Diazaspiro[3.5]nonan-7-yl)phenyl)-5,7-difluoro-1H-indazol-6-ol], the IC50 was 100 to 1000 nM.

Consider `CCC1(CC)CN(c2ccc(-n3ncc4cc(F)c(O)c(F)c43)cc2)C1` [Compound 24, 1-(4-(3,3-Diethylazetidin-1-yl)phenyl)-5,7-difluoro-1H-indazol-6-ol], for which the IC50 is less than 100 nM.

Regarding `CN1CCN(c2ccc(-n3ncc4cc(F)c(O)c(F)c43)cc2)CC1` [Compound 24.1, 5,7-Difluoro-1-(4-(4-methylpiperazin-1-yl)phenyl)-1H-indazol-6-ol], the IC50 lay within 100 to 1000 nM.

Consider `CC(C)N1CCN(c2ccc(-n3ncc4cc(F)c(O)c(F)c43)cc2)CC1` [Compound 24.2, 5,7-Difluoro-1-(4-(4-isopropylpiperazin-1-yl)phenyl)-1H-indazol-6-ol], for which the IC50 lay in the range of 100 to 1000 nM.

As to `CC(C)C1CN(c2ccc(-n3ncc4cc(F)c(O)c(F)c43)cc2)C1` [Compound 24.3, 5,7-Difluoro-1-(4-(3-isopropylazetidin-1-yl)phenyl)-1H-indazol-6-ol], the IC50 was less than 100 nM.

As for `CCC1(C)CN(c2ccc(-n3ncc4cc(F)c(O)c(F)c43)cc2)C1` [Compound 24.4, 1-(4-(3-Ethyl-3-methylazetidin-1-yl)phenyl)-5,7-difluoro-1H-indazol-6-ol], the IC50 is less than 100 nM.

Turning to `CCC1(C)CCN(c2ccc(-n3ncc4cc(F)c(O)c(F)c43)cc2)CC1` [Compound 24.5, 1-(4-(4-Ethyl-4-methylpiperidin-1-yl)phenyl)-5,7-difluoro-1H-indazol-6-ol], the IC50 is less than 100 nM.

As for `CC(C)C1(C)CCN(c2ccc(-n3ncc4cc(F)c(O)c(F)c43)cc2)CC1` [Compound 24.6, 5,7-Difluoro-1-(4-(4-isopropyl-4-methylpiperidin-1-yl)phenyl)-1H-indazol-6-ol], the IC50 was less than 100 nM.

As for `CCC1(CC)CCN(c2ccc(-n3ncc4cc(F)c(O)c(F)c43)cc2)CC1` [Compound 24.7, 1-(4-(4,4-Diethylpiperidin-1-yl)phenyl)-5,7-difluoro-1H-indazol-6-ol], the half-inhibitory concentration (IC50) is less than 100 nM.

Take `CC1(C(F)(F)F)CCN(c2ccc(-n3ncc4cc(F)c(O)c(F)c43)cc2)CC1` [Compound 24.8, 5,7-Difluoro-1-(4-(4-methyl-4-(trifluoromethyl)piperidin-1-yl)phenyl)-1H-indazol-6-ol]: the 50% inhibitory concentration (IC50) is less than 100 nM.

As to `C[C@H]1CN(c2ccc(-n3ncc4cc(F)c(O)c(F)c43)cc2)C[C@H](C)O1` [Compound 24.9, 1-(4-((2S,6S)-2,6-Dimethylmorpholino)phenyl)-5,7-difluoro-1H-indazol-6-ol], the 50% inhibitory concentration (IC50) is less than 100 nM.

Take `C[C@@H]1CN(c2ccc(-n3ncc4cc(F)c(O)c(F)c43)cc2)C[C@@H](C)O1` [Compound 24.10, 1-(4-((2R,6R)-2,6-Dimethylmorpholino)phenyl)-5,7-difluoro-1H-indazol-6-ol]: the IC50 was less than 100 nM.

Take `O=S1(=O)CCC2(CC1)CN(c1ccc(-n3ncc4cc(F)c(O)c(F)c43)cc1)C2` [Compound 24.11, 2-(4-(5,7-Difluoro-6-hydroxy-1H-indazol-1-yl)phenyl)-7-thia-2-azaspiro[3.5]nonane 7,7-dioxide]: the IC50 lay in the range of 100 to 1000 nM.

For `Cc1c(O)c(F)cc2cnn(-c3ccc(N4CCN(S(C)(=O)=O)CC4)cc3)c12` [Compound 24.12, 5-Fluoro-7-methyl-1-(4-(4-(methylsulfonyl)piperazin-1-yl)phenyl)-1H-indazol-6-ol], for the setting “3 h, at 10 uM compound, read-out: HSD17β13 % at 10 uM”, the inhibition at 10 µM came to 35%.

Consider `CS(=O)(=O)N1CCN(c2ccc(-n3ncc4cc(F)c(O)c(Cl)c43)cc2)CC1` [Compound 25, 7-Chloro-5-fluoro-1-(4-(4-(methylsulfonyl)piperazin-1-yl)phenyl)-1H-indazol-6-ol], for which the half-inhibitory concentration (IC50) fell in the range of 100 to 1000 nM.

`CC1(C)CCN(c2ccc(-n3ncc4c(C(F)(F)F)c(F)c(O)cc43)cc2)CC1` [Compound 25.1, 1-(4-(4,4-Dimethylpiperidin-1-yl)phenyl)-5-fluoro-4-(trifluoromethyl)-1H-indazol-6-ol]: the IC50 lay in the range of 100 to 1000 nM.

As for `CC1(C)CCN(c2ccc(-n3ncc4cc(F)c(O)nc43)cc2)CC1` [Compound 25.2, 1-(4-(4,4-Dimethylpiperidin-1-yl)phenyl)-5-fluoro-1H-pyrazolo[3,4-b]pyridin-6-ol], the IC50 is 1000 to 30000 nM.
